Key:
E.G7-OVA tumors = test: Adoptive transfer of ex vivo expanded OT-1 cells into E.G7-OVA tumor-bearing mice: antitumor response; assay type: in vivo, mouse
Description: Antigen specific T cells from transgenic mice can be leveraged as a model for CAR T or TIL expansion ex vivo with a Cbl inhibitor. The OT-1 transgenic animals, that are commercially available, have CD8 T cells that recognize OVA peptide aa 257-264 when presented by the MHC I molecule. CD8+ T cells from OT-1 mice were isolated from a single cell suspension of splenocytes by negative selection (StemCell Technologies cat #19853 EasySep™ Mouse CD8+ T Cell Isolation Kit). Cell were then resuspended in complete media (RPMI1640, 10% heat inactivated FBS, 1× Penicillin/Streptomycin, 1× Glutamine and […]-mercaptoethanol) at concentration of 0.5×10^6 per mL. Six well tissue culture plates (Falcon) were coated with 2 ug/mL of anti-mouse CD3 (Bio Xcell Cat #BE0001-1-R100 mg InVivoMAb anti-mouse CD3ε Clone: 145-2C11) for >3 hrs at 37° C. and washed with PBS (MediaTech) prior to cell addition. […] Following three days of OT-1 T cell activation and expansion the cells were collected, counted and immunophenotyped by flow cytometry by measuring expression of differentiation and additional T cell makers including: CD3, CD4, CD8, CD45, CD25, Granzyme B, CD107a, CD127, PD-1, TIM3, LAG3, KLRG-1, ICOS, TCF1, Ki67, T-bet and FOXP3.
Dead cells were removed (Miltenyi Biotec Cat #130-090-101) prior to transfer in vivo to monitor their trafficking and function in an EG.7 lymphoma model, which expresses the OVA antigen. Approximately five million cells per mouse were transferred to mice having an average tumor burden of about 70 mm^3. Following in vivo transfer of the OT-1 cells, antitumor response was monitored over time and the quality and quantity of immune response were assessed at various time points.
The expanded OT-1 cells were characterized by FACS analysis and transferred into E.G7-OVA mice, which bear ovalbumin (OVA) expressing tumors. Following in vivo transfer of expanded OT-1 cells, antitumor response was monitored over time and the quality and quantity of immune response was assessed at various time points. Analysis included FACS analysis on blood, tumor, and spleen samples. Analysis also included re-stimulation of splenocytes with OVA Class I peptide to evaluate the multifunctionality of the antigen-specific effector T cells.
On Day 0, E.G7-OVA cells were implanted into each mouse. On Day 5, approximately 5×10^6 in vitro expanded OT-1 cells were injected into the tail of each mouse. On Day 9, blood was analyzed by FACS. On Day 14, blood, tumor and spleen samples were analyzed by FACS. On Day 27, blood was analyzed by FACS. Tumor volume was measured approximately every five days through about 50 days post implant.

[1] = system: human T cells from peripheral blood mononuclear cells; test: Flow cytometry immunophenotyping of T cells expanded from donor PBMC; assay type: cell-based; settings: for CD4 TCM, percentage of total cell number / CD4 TEM, percentage of total cell number / CD4 TSCM, percentage of total cell number / CD8 TCM, percentage of total cell number / CD8 TEM, percentage of total cell number / CD8 TSCM, percentage of total cell number: donor PBMC, day 11
Description: At day eleven, cells were pooled and counted, and immunophenotyped at day 11 by flow cytometry by measuring expression of lineage (CD4, CD8) and differentiation (including CD45RA, CD45RO, CD95, CCR7, CD62L, TCF1, PD-1, TIM3, LAG3) markers.
T lymphocytes were defined based on lineage and differentiation marker expression according to the developmental model (Restifo, Blood, 124:476-477, 2014), as shown in Table 4.

[2] = system: human tumor-infiltrating lymphocytes (TIL); test: Rapid Expansion Protocol (REP) of TIL; assay type: cell-based; settings: day 42 (Pre-REP and REP)
Description: PBMC, OKT3 antibody (30 ng/mL), complete medium (“CM”), AIM V media (GIBCO/BRL), and TIL effector cells were combined, mixed, and aliquoted to a 75 cm^2 tissue culture flask. Flasks were incubated upright at 37° C. in 5% CO2. […] About 14 days after initiation of the REP, cells were harvested and cryopreserved for future experimental analysis.

For `C[C@@H]1CN(Cc2cc3c(c(C(F)(F)F)c2)CN(c2cccc(C4(Cc5nncn5C)COC4)c2)C3=O)CCC1(F)F` [compound 103], the “Anti-tumor phenotype of transferred T cells vs controls” value (E.G7-OVA tumors; 3-day ex vivo exposure, alone or in combination with IL-2) was “conferred a lasting anti-tumor phenotype for over a month”, the “Inhibition of tumor growth vs IL-2 expanded cells” value (E.G7-OVA tumors; OT-1 cells expanded with compound 103, FIG. 12A) was “more pronounced inhibition of tumor growth” and the “Long-term survival vs IL-2 expanded cells” value (E.G7-OVA tumors; OT-1 cells expanded with compound 103, FIG. 12B) was “improved long-term survival”. For the same molecule, the “Inhibition of tumor growth vs single agents alone” value (E.G7-OVA tumors; OT-1 cells expanded with compound 103 plus IL-2, FIG. 12A) was “more pronounced inhibition of tumor growth”, the “Long term survival vs single agents alone” value (E.G7-OVA tumors; OT-1 cells expanded with compound 103 plus IL-2, FIG. 12B) was “superior long term survival” and the “Potency of expanded CD8+ OT-1 cells (tumor volume) vs IL-2 expanded” value (E.G7-OVA tumors; expanded with compound 103 (1 μM) alone, FIGS. 11A and 11B) was “at least as potent”. For the same molecule, the “Rejection of established tumors by expanded OT-1 cells” value (E.G7-OVA tumors; mice subcutaneously implanted with E.G7-OVA cells, FIG. 9) was “potent effectors capable of rejecting established tumors”, the “Percentage of CD8+ cells vs IL-2 alone” value ([1]; 1 μM Cbl inhibitor alone) was “higher percentages of CD8+ cells” and the “Percentage of CD8+ cells in culture” value ([1]; IL-2 in combination with 0.1 or 0.5 μM of Cbl inhibitor) was “highest percentage of CD8+ cells”. For the same molecule, the “CD4 TCM, percentage of total cell number” value ([1]; 0.1 μM Cbl-i) was 53.1%, the “CD4 TEM, percentage of total cell number” value ([1]; 0.1 μM Cbl-i) was 23.9% and the “CD4 TSCM, percentage of total cell number” value (“CD4 TSCM, percentage” for short) ([1]; 0.1 μM Cbl-i) was 12%. For the same molecule, the “CD8 TCM, percentage of total cell number” value ([1]; 0.1 μM Cbl-i) was 50.7%, the “CD8 TEM, percentage of total cell number” value ([1]; 0.1 μM Cbl-i) was 14.2% and the “CD8 TSCM, percentage of total cell number” value (“CD8 TSCM, percentage” for short) ([1]; 0.1 μM Cbl-i) was 17.1%. The “CD4 TCM, percentage of total cell number” value ([1]; 1.0 μM Cbl-i) was 55.3%, the “CD4 TEM, percentage of total cell number” value ([1]; 1.0 μM Cbl-i) was 19.3% and the “CD4 TSCM, percentage” value ([1]; 1.0 μM Cbl-i) was 7.27%. The “CD8 TCM, percentage of total cell number” value ([1]; 1.0 μM Cbl-i) was 61.1%, the “CD8 TEM, percentage of total cell number” value ([1]; 1.0 μM Cbl-i) was 12.9% and the “CD8 TSCM, percentage” value ([1]; 1.0 μM Cbl-i) was 7.29%. For the same molecule, the “CD4 TCM, percentage of total cell number” value ([1]; 10 μM Cbl-i) was 47.3%, the “CD4 TEM, percentage of total cell number” value ([1]; 10 μM Cbl-i) was 23.3% and the “CD4 TSCM, percentage” value ([1]; 10 μM Cbl-i) was 1.37%. For the same molecule, the “CD8 TCM, percentage of total cell number” value ([1]; 10 μM Cbl-i) was 34.2%, the “CD8 TEM, percentage of total cell number” value ([1]; 10 μM Cbl-i) was 9.23% and the “CD8 TSCM, percentage” value ([1]; 10 μM Cbl-i) was 10.8%. For the same molecule, the “CD4 TCM, percentage of total cell number” value ([1]; IL-2 + 0.1 μM Cbl-i) was 13.9%, the “CD4 TEM, percentage of total cell number” value ([1]; IL-2 + 0.1 μM Cbl-i) was 29.7% and the “CD4 TSCM, percentage” value ([1]; IL-2 + 0.1 μM Cbl-i) was 8.53%. The “CD8 TCM, percentage of total cell number” value ([1]; IL-2 + 0.1 μM Cbl-i) was 47.8%, the “CD8 TEM, percentage of total cell number” value ([1]; IL-2 + 0.1 μM Cbl-i) was 18.3% and the “CD8 TSCM, percentage” value ([1]; IL-2 + 0.1 μM Cbl-i) was 4.2%. The “CD4 TCM, percentage of total cell number” value ([1]; IL-2 + 1.0 μM Cbl-i) was 16.8%, the “CD4 TEM, percentage of total cell number” value ([1]; IL-2 + 1.0 μM Cbl-i) was 28.4% and the “CD4 TSCM, percentage” value ([1]; IL-2 + 1.0 μM Cbl-i) was 1.98%. For the same molecule, the “CD8 TCM, percentage of total cell number” value ([1]; IL-2 + 1.0 μM Cbl-i) was 37.8%, the “CD8 TEM, percentage of total cell number” value ([1]; IL-2 + 1.0 μM Cbl-i) was 41.4% and the “CD8 TSCM, percentage” value ([1]; IL-2 + 1.0 μM Cbl-i) was 0.23%. The “CD4 TCM, percentage of total cell number” value ([1]; IL-2 + 10 μM Cbl-i) was 24.3%, the “CD4 TEM, percentage of total cell number” value ([1]; IL-2 + 10 μM Cbl-i) was 25.8% and the “CD4 TSCM, percentage” value ([1]; IL-2 + 10 μM Cbl-i) was 2.69%. For the same molecule, the “CD8 TCM, percentage of total cell number” value ([1]; IL-2 + 10 μM Cbl-i) was 49%, the “CD8 TEM, percentage of total cell number” value ([1]; IL-2 + 10 μM Cbl-i) was 10.6% and the “CD8 TSCM, percentage” value ([1]; IL-2 + 10 μM Cbl-i) was 9.36%. The “Selective expansion of CD8+ T lymphocytes” value ([1]; donor PBMCs, FIGS. 2A and 2B) was “selectively expand CD8+ T lymphocytes”, the “Expansion of TIL (REP), total cell number relative to IL-2 alone” value ([2]; TIL1 (ovary), 0.1 μM Cbl-i) was 40% and the “Expansion of TIL (REP), total cell number relative to IL-2 alone” value ([2]; TIL1 (ovary), 1.0 μM Cbl-i) was 42%. The “Expansion of TIL (REP), total cell number relative to IL-2 alone” value ([2]; TIL1 (ovary), 10 μM Cbl-i) was 32%, the “Expansion of TIL (REP), total cell number relative to IL-2 alone” value ([2]; TIL1 (ovary), IL-2 + 0.1 μM Cbl-i) was 50% and the “Expansion of TIL (REP), total cell number relative to IL-2 alone” value ([2]; TIL1 (ovary), IL-2 + 1.0 μM Cbl-i) was 52%. For the same molecule, the “Expansion of TIL (REP), total cell number relative to IL-2 alone” value ([2]; TIL1 (ovary), IL-2 + 10 μM Cbl-i) was 49%, the “Expansion of TIL (REP), total cell number relative to IL-2 alone” value ([2]; TIL3 (ovary), 0.1 μM Cbl-i) was 127% and the “Expansion of TIL (REP), total cell number relative to IL-2 alone” value ([2]; TIL3 (ovary), 1.0 μM Cbl-i) was 150%. The “Expansion of TIL (REP), total cell number relative to IL-2 alone” value ([2]; TIL3 (ovary), 10 μM Cbl-i) was 107%, the “Expansion of TIL (REP), total cell number relative to IL-2 alone” value ([2]; TIL3 (ovary), IL-2 + 0.1 μM Cbl-i) was 193% and the “Expansion of TIL (REP), total cell number relative to IL-2 alone” value ([2]; TIL3 (ovary), IL-2 + 1.0 μM Cbl-i) was 207%. For the same molecule, the “Expansion of TIL (REP), total cell number relative to IL-2 alone” value ([2]; TIL3 (ovary), IL-2 + 10 μM Cbl-i) was 197%, the “Expansion of TIL (REP), total cell number relative to IL-2 alone” value ([2]; TIL4 (colon), 0.1 μM Cbl-i) was 80% and the “Expansion of TIL (REP), total cell number relative to IL-2 alone” value ([2]; TIL4 (colon), 1.0 μM Cbl-i) was 80%. The “Expansion of TIL (REP), total cell number relative to IL-2 alone” value ([2]; TIL4 (colon), 10 μM Cbl-i) was 107%, the “Expansion of TIL (REP), total cell number relative to IL-2 alone” value ([2]; TIL4 (colon), IL-2 + 0.1 μM Cbl-i) was 167% and the “Expansion of TIL (REP), total cell number relative to IL-2 alone” value ([2]; TIL4 (colon), IL-2 + 1.0 μM Cbl-i) was 194%. The “Expansion of TIL (REP), total cell number relative to IL-2 alone” value ([2]; TIL4 (colon), IL-2 + 10 μM Cbl-i) was 240%, the “Expansion of TIL (REP), total cell number relative to IL-2 alone” value ([2]; TIL6 (ovary), 0.1 μM Cbl-i) was 51% and the “Expansion of TIL (REP), total cell number relative to IL-2 alone” value ([2]; TIL6 (ovary), 1.0 μM Cbl-i) was 63%. The “Expansion of TIL (REP), total cell number relative to IL-2 alone” value ([2]; TIL6 (ovary), 10 μM Cbl-i) was 49%, the “Expansion of TIL (REP), total cell number relative to IL-2 alone” value ([2]; TIL6 (ovary), IL-2 + 0.1 μM Cbl-i) was 206% and the “Expansion of TIL (REP), total cell number relative to IL-2 alone” value ([2]; TIL6 (ovary), IL-2 + 1.0 μM Cbl-i) was 180%. The “Expansion of TIL (REP), total cell number relative to IL-2 alone” value ([2]; TIL6 (ovary), IL-2 + 10 μM Cbl-i) was 168%.
